Assay results as given in ChEMBL document CHEMBL1201862, “PubChem BioAssay data set” (2004).
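48-hour exposure; five concentrations; linearly interpolated endpoints. GI50 = concentration required for 50% inhibition of growth.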 Calls of active or inactive are those of the source. Rule as the data show it: active = GI50 up to about 1.1 µM and inactive = higher.

Legend:
Experiment in all cases: growth of human tumour cells (NCI), 48 h
786-0 = test system: 786-0
A549 = test system: A549
ACHN = test system: ACHN
CAKI-1 = test system: CAKI-1
CCRF-CEM = test system: CCRF-CEM
COLO 205 = test system: COLO 205
DLD-1 = test system: DLD-1
DMS-114 = test system: DMS-114
DMS-273 = test system: DMS-273
EKVX = test system: EKVX
HCC 2998 = test system: HCC 2998
HCT-15 = test system: HCT-15
HL-60 = test system: HL-60
HOP-18 = test system: HOP-18
HOP-62 = test system: HOP-62
HOP-92 = test system: HOP-92
HT-29 = test system: HT-29
IGROV-1 = test system: IGROV-1
K562 = test system: K562
KM-20L2 = test system: KM-20L2
KM12 = test system: KM12
LOX IMVI = test system: LOX IMVI
LXFL 529 = test system: LXFL 529
M14 = test system: M14
M19-MEL = test system: M19-MEL
MOLT-4 = test system: MOLT-4
Malme-3M = test system: Malme-3M
NCI-H23 = test system: NCI-H23
NCI-H460 = test system: NCI-H460
NCI-H522 = test system: NCI-H522
OVCAR-3 = test system: OVCAR-3
OVCAR-4 = test system: OVCAR-4
OVCAR-5 = test system: OVCAR-5
OVCAR-8 = test system: OVCAR-8
RPMI-8226 = test system: RPMI-8226
RXF 393 = test system: RXF 393
SF-268 = test system: SF-268
SF-295 = test system: SF-295
SF-539 = test system: SF-539
SK-MEL-28 = test system: SK-MEL-28
SK-MEL-2 = test system: SK-MEL-2
SK-MEL-5 = test system: SK-MEL-5
SK-OV-3 = test system: SK-OV-3
SN12C = test system: SN12C
SNB-75 = test system: SNB-75
SW-620 = test system: SW-620
TK-10 = test system: TK-10
U-251 = test system: U-251
UACC-257 = test system: UACC-257
UACC-62 = test system: UACC-62
UO-31 = test system: UO-31
A498 = test system: A498
HCT-116 = test system: HCT-116
NCI-H226 = test system: NCI-H226
SNB-19 = test system: SNB-19
SNB-78 = test system: SNB-78
SR = test system: SR
XF498 = test system: XF498

CN(C)C(=C1C(Br)=C(Br)C(Br)=C1Br)N(C)C
GI50 (786-0): > 100 µM (inactive) | GI50 (A549): > 100 µM (inactive) | GI50 (ACHN): > 100 µM (inactive) | GI50 (CAKI-1): > 100 µM (inactive) | GI50 (CCRF-CEM): 26.3 µM (inactive) | GI50 (COLO 205): > 100 µM (inactive) | GI50 (DLD-1): > 100 µM (inactive) | GI50 (DMS-114): > 100 µM (inactive) | GI50 (DMS-273): > 100 µM (inactive) | GI50 (EKVX): > 100 µM (inactive) | GI50 (HCC 2998): > 100 µM (inactive) | GI50 (HCT-15): > 100 µM | GI50 (HL-60): 46.3 µM (inactive) | GI50 (HOP-18): > 100 µM (inactive) | GI50 (HOP-62): > 100 µM (inactive) | GI50 (HOP-92): > 100 µM (inactive) | GI50 (HT-29): > 100 µM (inactive) | GI50 (IGROV-1): > 100 µM (inactive) | GI50 (K562): 30.4 µM (inactive) | GI50 (KM-20L2): > 100 µM (inactive) | GI50 (KM12): > 100 µM (inactive) | GI50 (LOX IMVI): 21.5 µM (inactive) | GI50 (LXFL 529): 75 µM (inactive) | GI50 (M14): > 100 µM (inactive) | GI50 (M19-MEL): > 100 µM (inactive) | GI50 (MOLT-4): > 100 µM (inactive) | GI50 (Malme-3M): > 100 µM (inactive) | GI50 (NCI-H23): > 100 µM (inactive) | GI50 (NCI-H460): > 100 µM (inactive) | GI50 (NCI-H522): 17.5 µM (inactive) | GI50 (OVCAR-3): > 100 µM (inactive) | GI50 (OVCAR-4): > 100 µM (inactive) | GI50 (OVCAR-5): > 100 µM (inactive) | GI50 (OVCAR-8): > 100 µM (inactive) | GI50 (RPMI-8226): 22.7 µM (inactive) | GI50 (RXF 393): > 100 µM (inactive) | GI50 (SF-268): > 100 µM (inactive) | GI50 (SF-295): > 100 µM (inactive) | GI50 (SF-539): > 100 µM (inactive) | GI50 (SK-MEL-28): > 100 µM (inactive) | GI50 (SK-MEL-2): > 100 µM (inactive) | GI50 (SK-MEL-5): > 100 µM (inactive) | GI50 (SK-OV-3): > 100 µM (inactive) | GI50 (SN12C): > 100 µM (inactive) | GI50 (SNB-75): 38.6 µM (inactive) | GI50 (SW-620): 83.8 µM (inactive) | GI50 (TK-10): > 100 µM (inactive) | GI50 (U-251): > 100 µM (inactive) | GI50 (UACC-257): > 100 µM (inactive) | GI50 (UACC-62): > 100 µM (inactive) | GI50 (UO-31): > 100 µM (inactive)

NC(=O)N/N=C(\C(=O)C(=O)Nc1ccc(Cl)c(C(F)(F)F)c1)c1nc2ccc(C(=O)c3ccccc3)cc2nc1O
GI50 (786-0): > 100 µM (inactive) | GI50 (A498): 36.9 µM (inactive) | GI50 (A549): > 100 µM (inactive) | GI50 (ACHN): 82.4 µM (inactive) | GI50 (CAKI-1): 27.5 µM (inactive) | GI50 (CCRF-CEM): 55.8 µM (inactive) | GI50 (COLO 205): > 100 µM (inactive) | GI50 (DMS-114): 68.4 µM (inactive) | GI50 (DMS-273): > 100 µM (inactive) | GI50 (EKVX): 27.2 µM (inactive) | GI50 (HCC 2998): > 100 µM (inactive) | GI50 (HCT-116): > 100 µM (inactive) | GI50 (HCT-15): > 100 µM | GI50 (HOP-18): 23.7 µM (inactive) | GI50 (HOP-92): 7.36 µM (inactive) | GI50 (HT-29): 95.3 µM (inactive) | GI50 (IGROV-1): > 100 µM (inactive) | GI50 (K562): 48.4 µM (inactive) | GI50 (KM-20L2): > 100 µM (inactive) | GI50 (KM12): 77.6 µM (inactive) | GI50 (M14): > 100 µM (inactive) | GI50 (M19-MEL): > 100 µM (inactive) | GI50 (MOLT-4): 35.3 µM (inactive) | GI50 (Malme-3M): > 100 µM (inactive) | GI50 (NCI-H226): 47.3 µM (inactive) | GI50 (NCI-H23): 97.9 µM (inactive) | GI50 (NCI-H460): > 100 µM (inactive) | GI50 (NCI-H522): 46.6 µM (inactive) | GI50 (OVCAR-4): 53.8 µM (inactive) | GI50 (OVCAR-5): > 100 µM (inactive) | GI50 (OVCAR-8): 88.9 µM (inactive) | GI50 (RPMI-8226): > 100 µM (inactive) | GI50 (RXF 393): 66.4 µM (inactive) | GI50 (SF-268): 70.3 µM (inactive) | GI50 (SF-295): > 100 µM (inactive) | GI50 (SF-539): > 100 µM (inactive) | GI50 (SK-MEL-28): > 100 µM (inactive) | GI50 (SK-MEL-2): > 100 µM (inactive) | GI50 (SK-MEL-5): 44.3 µM (inactive) | GI50 (SK-OV-3): 85.7 µM (inactive) | GI50 (SN12C): 99.5 µM (inactive) | GI50 (SNB-19): > 100 µM (inactive) | GI50 (SNB-78): 76.6 µM (inactive) | GI50 (SR): 45.7 µM (inactive) | GI50 (SW-620): > 100 µM (inactive) | GI50 (TK-10): > 100 µM (inactive) | GI50 (U-251): > 100 µM (inactive) | GI50 (UACC-257): 72.4 µM (inactive) | GI50 (UACC-62): 59 µM (inactive) | GI50 (UO-31): 31.6 µM (inactive) | GI50 (XF498): 9.62 µM (inactive)

C1CCN(C2OC3C(COC3N3CCCCC3)OC2OC2CCO[C@@H]2N2CCCCC2)CC1 (some centres not stated)
GI50 (786-0): 34.7 µM (inactive) | GI50 (A498): 34.1 µM (inactive) | GI50 (A549): 51.3 µM (inactive) | GI50 (ACHN): 25.9 µM (inactive) | GI50 (CAKI-1): 30.1 µM (inactive) | GI50 (CCRF-CEM): 5.11 µM (inactive) | GI50 (COLO 205): 38.3 µM (inactive) | GI50 (DLD-1): 38.8 µM (inactive) | GI50 (DMS-114): 14.3 µM (inactive) | GI50 (DMS-273): 32.1 µM (inactive) | GI50 (EKVX): 33.8 µM (inactive) | GI50 (HCC 2998): > 100 µM (inactive) | GI50 (HCT-116): 34.7 µM (inactive) | GI50 (HCT-15): 29.5 µM | GI50 (HL-60): 8.47 µM (inactive) | GI50 (HOP-62): 36.2 µM (inactive) | GI50 (HOP-92): 11 µM (inactive) | GI50 (HT-29): 89.1 µM (inactive) | GI50 (IGROV-1): 79.3 µM (inactive) | GI50 (K562): 28.4 µM (inactive) | GI50 (KM-20L2): > 100 µM (inactive) | GI50 (KM12): 78.5 µM (inactive) | GI50 (LOX IMVI): 75 µM (inactive) | GI50 (LXFL 529): 17.3 µM (inactive) | GI50 (M14): 40.6 µM (inactive) | GI50 (MOLT-4): 15.8 µM (inactive) | GI50 (Malme-3M): 21.1 µM (inactive) | GI50 (NCI-H226): 20 µM (inactive) | GI50 (NCI-H23): 21.1 µM (inactive) | GI50 (NCI-H460): > 100 µM (inactive) | GI50 (NCI-H522): 12.4 µM (inactive) | GI50 (OVCAR-3): 24.8 µM (inactive) | GI50 (OVCAR-4): 34 µM (inactive) | GI50 (OVCAR-5): > 100 µM (inactive) | GI50 (OVCAR-8): 17.5 µM (inactive) | GI50 (RPMI-8226): 17.9 µM (inactive) | GI50 (RXF 393): 8.18 µM (inactive) | GI50 (SF-268): 53.7 µM (inactive) | GI50 (SF-295): 47.5 µM (inactive) | GI50 (SF-539): 16.5 µM (inactive) | GI50 (SK-MEL-28): 57.9 µM (inactive) | GI50 (SK-MEL-2): 20.8 µM (inactive) | GI50 (SK-MEL-5): 25.2 µM (inactive) | GI50 (SK-OV-3): 32.6 µM (inactive) | GI50 (SN12C): 43.1 µM (inactive) | GI50 (SNB-19): 36.2 µM (inactive) | GI50 (SNB-75): 9.98 µM (inactive) | GI50 (SNB-78): 8.26 µM (inactive) | GI50 (SW-620): 81.3 µM (inactive) | GI50 (TK-10): 80.9 µM (inactive) | GI50 (U-251): 30.5 µM (inactive) | GI50 (UACC-257): 20.8 µM (inactive) | GI50 (UACC-62): 13.4 µM (inactive) | GI50 (UO-31): 44.5 µM (inactive) | GI50 (XF498): 15.8 µM (inactive)
